# Laboratory results from article PMC4207539 (Journal of Medicinal Chemistry, 2014).
# Values joined by “and” are separate entries in the source; they are usually repeats but may differ in a detail not shown here. Equal entries are not always repeated.
# Assays:
# [1] = mouse, in vivo, ip
# Fa2N-4 cells = conditions: human
# CYP2D6 = CYP2D6 (Homo sapiens, UniProt P10635); experiment: in vitro; conditions: pH 7.4
# CYP2C9 = CYP2C9 (Homo sapiens, UniProt P11712); experiment: in vitro; conditions: pH 7.4
# VEEV (TC-83) [2] = conditions: mouse, in vivo
# [3] = male, in vivo
# [4] = system: panel of 67 GPCRs, ion channels and transporters; format: binding; conditions: 10 µM
# CYP3A4 = CYP3A4 (Homo sapiens, UniProt P08684); experiment: in vitro; conditions: pH 7.4
# CYP2C19 = CYP2C19 (Homo sapiens, UniProt P33261); experiment: in vitro; conditions: pH 7.4
# VEEV (TC-83) [5] = experiment: microbe, parasite or virus in culture; conditions: Venezuelan equine encephalitis virus, read-out: EC50, several VEEV strains
# VEEV TrD strain = format: cell-based, Venezuelan equine encephalitis virus
# VEEV TC-83 strain = format: cell-based, Venezuelan equine encephalitis virus
# VEEV (TC-83) [6] = system: VEEV (TC-83)
# CYP2C9, sequence (P11712 whole entry): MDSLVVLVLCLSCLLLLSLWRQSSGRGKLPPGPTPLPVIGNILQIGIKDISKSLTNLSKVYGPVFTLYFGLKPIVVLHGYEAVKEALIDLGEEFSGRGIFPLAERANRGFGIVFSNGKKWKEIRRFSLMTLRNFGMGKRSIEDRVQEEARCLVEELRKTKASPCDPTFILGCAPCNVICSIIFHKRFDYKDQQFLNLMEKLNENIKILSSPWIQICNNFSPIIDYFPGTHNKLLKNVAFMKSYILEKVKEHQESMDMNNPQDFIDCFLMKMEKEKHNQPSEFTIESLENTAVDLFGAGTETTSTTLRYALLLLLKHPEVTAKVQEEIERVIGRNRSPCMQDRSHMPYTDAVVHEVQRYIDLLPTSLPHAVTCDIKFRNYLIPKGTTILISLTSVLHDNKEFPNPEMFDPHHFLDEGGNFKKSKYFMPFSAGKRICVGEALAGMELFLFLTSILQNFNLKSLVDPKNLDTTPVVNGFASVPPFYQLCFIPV
# CYP2C19, sequence (P33261 whole entry): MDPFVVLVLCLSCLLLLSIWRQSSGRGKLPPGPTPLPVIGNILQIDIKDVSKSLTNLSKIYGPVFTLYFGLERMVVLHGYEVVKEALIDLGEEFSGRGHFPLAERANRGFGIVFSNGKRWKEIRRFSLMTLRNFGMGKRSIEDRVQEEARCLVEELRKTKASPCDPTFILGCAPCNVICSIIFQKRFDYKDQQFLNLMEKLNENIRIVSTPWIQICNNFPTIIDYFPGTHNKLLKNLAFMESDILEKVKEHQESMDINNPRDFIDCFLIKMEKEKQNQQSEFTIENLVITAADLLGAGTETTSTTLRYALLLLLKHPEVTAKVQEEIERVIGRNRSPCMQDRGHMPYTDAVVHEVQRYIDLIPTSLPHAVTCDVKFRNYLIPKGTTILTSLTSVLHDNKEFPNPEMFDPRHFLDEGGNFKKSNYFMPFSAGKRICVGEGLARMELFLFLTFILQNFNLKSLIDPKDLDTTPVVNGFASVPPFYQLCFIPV
# CYP3A4, sequence (P08684 whole entry): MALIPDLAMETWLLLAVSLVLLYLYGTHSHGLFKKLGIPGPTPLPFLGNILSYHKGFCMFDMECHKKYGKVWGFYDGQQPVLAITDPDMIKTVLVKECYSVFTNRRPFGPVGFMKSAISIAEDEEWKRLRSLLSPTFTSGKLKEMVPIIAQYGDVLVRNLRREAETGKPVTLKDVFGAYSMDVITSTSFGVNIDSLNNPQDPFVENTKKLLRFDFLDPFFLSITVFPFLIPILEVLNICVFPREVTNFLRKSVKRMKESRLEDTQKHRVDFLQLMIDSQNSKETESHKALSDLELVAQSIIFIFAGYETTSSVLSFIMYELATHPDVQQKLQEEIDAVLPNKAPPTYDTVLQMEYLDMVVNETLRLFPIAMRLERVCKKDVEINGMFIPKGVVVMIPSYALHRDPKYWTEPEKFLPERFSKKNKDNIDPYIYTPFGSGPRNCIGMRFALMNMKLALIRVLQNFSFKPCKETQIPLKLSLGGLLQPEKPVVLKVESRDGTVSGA
# CYP2D6, sequence (P10635 whole entry): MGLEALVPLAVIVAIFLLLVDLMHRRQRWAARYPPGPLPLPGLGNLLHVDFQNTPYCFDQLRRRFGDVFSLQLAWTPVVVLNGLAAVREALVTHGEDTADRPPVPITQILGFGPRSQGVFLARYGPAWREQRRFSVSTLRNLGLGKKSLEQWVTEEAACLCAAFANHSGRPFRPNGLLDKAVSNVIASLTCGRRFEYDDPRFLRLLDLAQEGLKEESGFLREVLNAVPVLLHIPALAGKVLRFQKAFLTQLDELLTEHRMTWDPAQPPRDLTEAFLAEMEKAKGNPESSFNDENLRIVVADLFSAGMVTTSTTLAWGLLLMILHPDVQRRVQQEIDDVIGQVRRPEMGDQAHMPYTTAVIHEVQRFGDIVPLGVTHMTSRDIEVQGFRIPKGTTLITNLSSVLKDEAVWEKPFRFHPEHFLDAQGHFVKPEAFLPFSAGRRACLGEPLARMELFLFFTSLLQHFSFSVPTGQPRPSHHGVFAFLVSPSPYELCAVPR
SMILES,"toxicity (body weight loss, lethargy, hunched posture, ruffled fur) [1]","hepatocyte toxicity (Fa2N-4), LD50 (Fa2N-4 cells)",inhibition at 10 µM (CYP2D6),inhibition at 10 µM (CYP2C9),percent survival (VEEV (TC-83) [2]),"plasma and brain concentration over in vitro CPE assay EC50 ([3]; C57Bl/6, mouse)","brain average concentration ± standard deviation ([3]; C57Bl/6J, mouse)","solubility (physchem; aqueous solubility, VEEV CPE assay medium)","solubility (physchem; pH 7.4, aqueous solubility, 1× PBS, pH 7.4)",inhibition of all other targets in the collection [4],inhibition at 10 µM (CYP3A4),inhibition at 10 µM (CYP2C19),EC50 (VEEV (TC-83) [5]),"titer reduction, TrD strain (VEEV TrD strain)","titer reduction, TC-83 strain (fold) (VEEV TC-83 strain)","titer reduction, TC-83 strain, dose response, EC90 (VEEV TC-83 strain)","titer reduction, TC-83 strain (log) (VEEV TC-83 strain)","lipophilic ligand efficiency, LLE (VEEV (TC-83) [6])"
"CN1CCN(C)/C(=N/c2ccc([N+](=O)[O-])cc2C(=O)Nc2ccccc2)C1 [compound 45, (E)-2-((1,4-Dimethylpiperazin-2-ylidene)amino)-5-nitro-N-phenylbenzamide]",no apparent toxicity or adverse effects were observed,> 25 µM,< 30%,< 30%,71%,> 10 fold,0.35 ± 0.06 µM,13.1 µg/mL,110 µM,≤ 36%,< 30%,< 30%,20 to 40 nM,no measurable viral replication,5.8 log (630 000 fold) and 7.2 log (16 million fold),170 nM,–,–
"CCN1CCN(Cc2nc3ccc([N+](=O)[O-])cc3c(=O)n2-c2ccccc2F)CC1 [compound 1, 2-((4-Ethylpiperazin-1-yl)methyl)-3-(2-fluorophenyl)-6-nitroquinazolin-4(3H)-one]",–,–,–,–,–,–,–,–,–,–,–,–,–,–,–,–,0.5 log (3-fold),–
"COc1ccc(NC(=O)c2cc([N+](=O)[O-])ccc2/N=C2\CN(C)CCN2C)cc1 [compound 51, (E)-2-((1,4-Dimethylpiperazin-2-ylidene)amino)-N-(4-methoxyphenyl)-5-nitrobenzamide]",–,–,–,–,–,–,–,–,–,–,–,–,–,no measurable viral replication,7.2 log (16 million fold),170 nM,7.2 log (16 million fold),4.1
